Series [1] concerns Sterne strain of Bacillus anthracis.
A further series deals with Escherichia coli. Conditions: 24 h.
Series [2] deals with Smith Diffuse strain of Staphylococcus aureus. Conditions: Smith Diffuse strain of.
For a further series, the system named is B. cereus. The note with it: 24 h.

Converted amounts (≈) assume the structure as drawn. Where a SMILES comes first, the peptide text is derived from it.

On to `CC(C)C[C@H](NC(=O)[C@H](CCCCN)NC(=O)[C@H](Cc1ccccc1)NC(=O)[C@@H](NC(=O)[C@@H](NC(=O)CNC(=O)[C@H](CC(C)C)NC(=O)[C@@H](N)Cc1ccccc1)C(C)C)C(C)C)C(=O)N[C@@H](C)C(=O)N[C@@H](CO)C(=O)N[C@@H](CCCCN)C(=O)N[C@H](C(=O)N[C@@H](Cc1ccccc1)C(=O)N1CCC[C@H]1C(=O)N[C@@H](C)C(=O)N[C@H](C(=O)N[C@@H](Cc1ccccc1)C(=O)NCC(=O)N[C@@H](CCCCN)C(=O)N[C@H](C(=O)O)C(C)C)C(C)C)C(C)C` [Peptide 28] (H-FLGVVFKLASKVFPAVFGKV-OH; N-terminus and C-terminus assumed), for which the “HC50, hemolytic concentration at which the peptides lyse 50% of human red blood cells” value with human red blood cells stood at 42 µg/mL. The “MIC B. anthracis” value in series [1] is 16 µg/mL (≈ 7.43 µM). In addition, the “MIC E. coli” value against Escherichia coli was found to be 64 µg/mL (≈ 29.7 µM). The “MIC S. aureus” value in series [2] was 8 µg/mL (≈ 3.71 µM). Also, in the series with B. cereus, the “MIC B. cereus” value stood at 16 µg/mL (≈ 7.43 µM).

Take `CC[C@H](C)[C@H](NC(=O)[C@H](CC(C)C)NC(=O)[C@H](C)NC(=O)[C@@H]1CCCN1C(=O)[C@H](Cc1ccccc1)NC(=O)[C@@H](NC(=O)[C@H](CCCCN)NC(=O)[C@H](CO)NC(=O)[C@H](C)NC(=O)[C@@H](NC(=O)[C@H](CCCNC(=N)N)NC(=O)[C@H](Cc1ccccc1)NC(=O)[C@H](CC(C)C)NC(=O)[C@@H](N)Cc1ccccc1)C(C)C)C(C)C)C(=O)NCC(=O)N[C@@H](CCCCN)C(=O)N[C@@H](Cc1ccccc1)C(=O)N[C@@H](CCCCN)C(=O)N[C@@H](CCCCN)C(=O)N[C@@H](CCCCN)C(=O)O` [Peptide 51] (H-FLFRVASKVFPALIGKFKKK-OH; N-terminus and C-terminus assumed): the “HC50, hemolytic concentration at which the peptides lyse 50% of human red blood cells” value in the series with human red blood cells is “greater than 512 μg/ml”. The “MIC B. anthracis” value in series [1] was found to be 16 µg/mL (≈ 6.88 µM). Also, the “MIC E. coli” value in the series with Escherichia coli is 64 µg/mL (≈ 27.5 µM). The “MIC S. aureus” value in series [2] was 16 µg/mL (≈ 6.88 µM). Moreover, the “MIC B. cereus” value in the series on B. cereus worked out at 16 µg/mL (≈ 6.88 µM).
